In EP2526945A1, “New CRTH2 Antagonists” (Almirall, S.A., priority 2011, dated 2012):

Biological target: T1, CRTh2 receptor (Homo sapiens, UniProt Q9Y5Y4)
T1 construct: expressed in transfected cells; host or cells: CHO.K1 cells (membranes)
T1 sequence (Q9Y5Y4 1-395): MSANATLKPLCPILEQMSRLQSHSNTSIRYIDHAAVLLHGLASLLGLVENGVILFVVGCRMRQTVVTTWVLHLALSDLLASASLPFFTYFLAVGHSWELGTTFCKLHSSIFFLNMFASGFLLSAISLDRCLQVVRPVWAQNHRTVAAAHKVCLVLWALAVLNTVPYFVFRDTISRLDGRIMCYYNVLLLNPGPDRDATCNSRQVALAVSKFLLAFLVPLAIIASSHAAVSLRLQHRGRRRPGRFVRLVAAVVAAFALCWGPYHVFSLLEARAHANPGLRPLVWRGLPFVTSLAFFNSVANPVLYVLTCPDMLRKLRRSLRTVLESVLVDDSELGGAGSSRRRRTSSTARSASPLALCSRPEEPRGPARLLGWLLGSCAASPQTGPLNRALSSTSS
Experiment: CRTh2 GTPγS antagonism binding assay
Format: biochemical
Conditions: membranes from CHO.K1 cells stably overexpressing the CRTh2 receptor; PGD2 at 50 nM (EC80); [35S]-GTPγS as radioligand; read-out: GTPγ Binding
Method: CRTh2 GTPγS antagonism binding assay
The assay is performed using membranes obtained from CHO.K1 cells stably overexpressing the CRTh2 receptor and [^35S]-GTPγS as radioligand. Assay is performed pre-incubating 4-8 µg of membranes per well with the compound to be tested for 1 h, followed by incubation with PGD2 at 50 nM (EC80), 0.1 nM [^35S]-GTPγS in incubation buffer (20 mM HEPES, 10 mM MgCl2, 100 mM NaCl, 10 µM GDP, 10 µg/ml Saponine and 0.2% BSA) for 2 h at room temperature. The reaction is terminated by filtering in GF/C plates pre-treated with 20 mM HEPES, 10 mM MgCl2, 100 mM NaCl and washing 6 times with wash buffer (20 mM NaH2PO4, 20 mM Na2HPO4). After washing, plates are dried and scintillation buffer Optiphase added. The radioactivity retained in the filter is counted using a Microbeta liquid scintillation counter.

Row | IC50 [nM] | SMILES
1 | 4.5 | Cc1c(Cc2ccccc2S(=O)(=O)c2ccccc2)c2c(n1CC(=O)O)CC(C)(C)NC2=O [Example 58, {2,6,6-Trimethyl-4-oxo-3-[2-(phenylsulfonyl)benzyl]-4,5,6,7-tetrahydro-1H-pyrrolo[3,2-c]pyridin-1-yl}acetic acid]
2 | 5 | Cc1c(Cc2ccccc2S(=O)(=O)c2ccc(F)cc2)c2c(n1CC(=O)O)CC(C)(C)NC2=O [Example 60, (3-{2-[(4-Fluorophenyl)sulfonyl]benzyl}-2,6,6-trimethyl-4-oxo-4,5,6,7-tetrahydro-1 H-pyrrolo[3,2-c]pyridin-1-yl)acetic acid]
3 | 4.8 | COc1ccc(S(=O)(=O)c2ccc(F)cc2)c(Cc2c3c(n(CC(=O)O)c2C)CC(C)(C)NC3=O)c1 [Example 62, (3-{2-[(4-Fluorophenyl)sulfonyl]-5-methoxybenzyl}-2,6,6-trimethyl-4-oxo-4,5,6,7-tetrahydro-1H-pyrrolo[3,2-c]pyridin-1-yl)acetic acid]
4 | 5.8 | Cc1c(Cc2ccccc2S(=O)(=O)c2ccccc2)c2c(n1CC(=O)O)CCN(C(C)C(F)(F)F)C2=O (stereo not drawn) [Example 71, [2-Methyl-4-oxo-3-[2-(phenylsulfonyl)benzyl]-5-(2,2,2-trifluoro-1-methylethyl)-4,5,6,7-tetrahydro-1H-pyrrolo[3,2-c]pyridin-1-yl]acetic acid]
5 | 8.6 | Cc1c(Cc2ccccc2S(=O)(=O)c2ccccc2)c2c(=O)[nH]ccc2n1CC(=O)O [Example 72, {2-Methyl-4-oxo-3-[2-(phenylsulfonyl)benzyl]-4,5-dihydro-1H-pyrrolo[3,2-c]pyridin-1-yl}acetic acid]
6 | 4.9 | Cc1c(Cc2ccccc2S(=O)(=O)c2ccccc2)c2c(=O)n(C)ccc2n1CC(=O)O [Example 75, {2,5-Dimethyl-4-oxo-3-[2-(phenylsulfonyl)benzyl]-4,5-dihydro-1H-pyrrolo[3,2-c]pyridin-1-yl}acetic acid]
